pIC50: −log10 of the molar value.
Test system: M. tuberculosis H37Rv growth inhibition
Assay: M. tuberculosis H37Rv growth inhibitors, H37Rv strain (AID 1626)
Settings: for IC90: measured here: IC90 against H37Rv; for CC50: measured here: Vero cell cytotoxicity

| Structure (SMILES) | pIC50 | IC90 | CC50 |
| --- | --- | --- | --- |
| O=C(Cc1cccs1)Nc1cccc(-c2nc3cc4ccccc4cc3[nH]2)c1 | 4.81 | 24.3 µM | 21 µM |
| CCCCNC(=O)COC(=O)c1cc(Br)ccc1Cl | 5.36 | 10.5 µM |  |
| O=C(Nc1nc2ccccc2[nH]1)c1cccc([N+](=O)[O-])c1 |  | > 100 µM |  |
| Cc1[nH]n2c(=O)cc(-c3ccc([N+](=O)[O-])cc3)nc2c1-c1ccccc1 | 6.13 | 1.43 µM | 35.1 µM |
| O=C(Nc1ccccc1Cl)Oc1ccc2ccccc2c1 |  | > 100 µM |  |
| COc1ccc(-c2nnc(SC(C(=O)c3c[nH]c4ccccc34)c3ccccc3)n2N)cc1OC (centres undefined) |  | > 100 µM | > 40 µM |
| C#CCn1c(=NC(=O)c2cc(Cl)sc2Cl)sc2cc(S(N)(=O)=O)ccc21 | 5.80 | > 100 µM | > 40 µM |
| CCN1CCN(Cc2ccc(NC(=O)c3ccc(C)c(NC(=O)c4cc(-c5ccc(Br)cc5)n[nH]4)c3)cc2C(F)(F)F)CC1 | 5.67 | 2.85 µM | 13 µM |
| COc1cnc(-c2ccccn2)nc1Sc1ccccc1 | 5.58 | 4.96 µM | 8.62 µM |
| CCCCCC(=O)Nc1ccc2ccccc2c1 | > 6.71 | > 100 µM |  |
| Cn1c(O)c(C(=Nc2ccccc2)SCc2ccc(Cl)cc2)c(=O)n(C)c1=O | 5.25 | 6.41 µM | 21.2 µM |
| CC1CCN(c2nc(-c3cccnc3)nc3scc(-c4ccccc4)c23)CC1 | 5.23 | 65.3 µM |  |
| COc1ccc(/C=c2\s/c(=C/C(=O)c3ccc(C)cc3)[nH]c2=O)cc1OC | 4.49 | > 100 µM |  |
| Cc1ccc(Cc2cnc(NC(=O)C3=NCCN3)s2)cc1 | 5.68 | 7.96 µM |  |
| CC(=O)Nc1cccc(C(=O)/C=C/c2ccc(C)cc2)c1 | 4.47 | > 100 µM | 13.7 µM |
| CC1CC(C)CN(C(=O)COC(=O)c2cc3ccccc3cc2O)C1 (centres undefined) | 6.23 | 4.29 µM |  |
| CCOc1ccc(NC(=O)CSC2=NCCN2)cc1 | 4.94 | > 100 µM |  |
| Cc1ccc(Cc2cnc(NC(=O)c3cccs3)s2)cc1 | 5.23 | 6.69 µM | > 40 µM |
| CC(=O)OCCCN1c2ccccc2Nc2nnc(-c3ccccc3)cc21 |  | > 100 µM | > 40 µM |
| Cc1ccc(Nc2nc(CSc3nnc(-c4cccs4)o3)cs2)cc1 | 5.17 | 15.9 µM | > 40 µM |
| COc1ccc(Cn2c(O)c(/C=C3/C=CC=N3)c(=O)[nH]c2=O)cc1 | 6.57 | > 100 µM | > 40 µM |
| Cn1c(NC(=O)c2ccccc2NC(=O)C(C)(C)C)nc2ccccc21 |  |  | > 40 µM |
| Cc1ccc(CNCC(O)(c2ccccc2)c2ccc(Cl)cc2)cc1 (centres undefined) | 5.09 | 10.9 µM | > 40 µM |
| CCCCCCc1ccc(OCC(=O)OC)cc1OCC(=O)OC | 5.74 | 20.1 µM |  |
| CCNC(=O)COC(=O)c1ccc(-c2nc3ccccc3s2)s1 | 5.12 | 15 µM | > 40 µM |
| CCCCOC(=O)c1ccc(N=Nc2c(C)c(C#N)c(O)[nH]c2=O)cc1 | > 6.71 | > 100 µM |  |
| Nc1nc(Nc2cccc(Cl)c2)nc(NCc2ccco2)c1[N+](=O)[O-] | 4.52 | > 100 µM | > 40 µM |

| Structure (SMILES) | pIC50 | IC90 | CC50 |
| --- | --- | --- | --- |
| CC1CCCN(c2ccc([N+](=O)[O-])s2)C1 (centres undefined) | 5.24 | 6.36 µM |  |
| Cc1nn(Cc2ccccc2Cl)c2sc(C(=O)NCc3ccc4c(c3)OCO4)cc12 | 5.26 | 7.16 µM |  |
| CCC(=O)Nc1nc2ccccc2n1Cc1ccc(Cl)cc1 | > 6.71 | > 100 µM | > 40 µM |
| CC1(C)Cc2c(C#N)c(N3CCN(C(=O)c4ccccc4)CC3)nc(Cc3ccccc3)c2CO1 | 4.98 | 18.7 µM | > 40 µM |
| CCCCCC(=O)Nc1ccc(-c2csc(C)n2)cc1 | 4.34 | > 100 µM |  |
| CCOc1ccc(NCc2ccccc2OCc2cccc(F)c2)cc1 | 5.05 | > 100 µM |  |
| CC(C)c1ccc(CNC(=O)C(=O)Nc2nccs2)cc1 | 4.30 | > 100 µM |  |
| CCOC(=O)COc1ccc2ccccc2c1/C=C/[N+](=O)[O-] | 5.52 | 3.47 µM | 39.2 µM |
| COc1ccc(/C=C2\COc3ccccc3C2=O)cc1OC | 5.03 | 14.6 µM | 29.2 µM |
| COc1ccc(OCc2nn3c(-c4cccc(OC)c4)nnc3s2)cc1 |  | > 100 µM |  |
| COc1ccc(-c2nnc(SCC(=O)Nc3cc(C)on3)o2)cc1 | 5.41 | 6.19 µM | > 40 µM |
| O=C(Nc1ccc(N2CCN(C(=O)c3ccco3)CC2)cc1)C(c1ccccc1)c1ccccc1 | 4.92 | 14.1 µM | > 40 µM |
| COc1ccc2nc(SCC(=O)Nc3ccc4c(c3)CCC4)[nH]c2c1 | 4.81 | > 100 µM |  |
| CCOc1ccc(N=c2scc(-c3ccccc3)n2CCO)cc1 | 4.45 | > 100 µM |  |
| O=C(OC(c1ccccc1)c1nccc2ccccc12)c1cc([N+](=O)[O-])cc([N+](=O)[O-])c1 (centres undefined) | 5.67 | 4.48 µM | > 40 µM |
| Cc1ccc(-c2c[n+](CC(=O)Nc3nc(-c4ccccc4)cs3)c3n2CCC3)cc1 | 5.11 | 16.1 µM |  |
| Oc1c(CN2CCc3ccccc3C2)cc(Cl)c2cccnc12 | 5.12 | 9.8 µM | 4.88 µM |
| CC(=O)Nc1sc2c(c1CN1CCN(c3ccc(F)cc3)CC1)CCCC2 | 4.88 | > 100 µM | > 40 µM |
| C=CCSc1nnc(-c2ccc([N+](=O)[O-])cc2)o1 | > 6.71 | 0.843 µM |  |
| COc1ccc(N=C(NN)c2ccc3ccccc3n2)cc1 | 4.26 | > 100 µM |  |
| COc1ccc(N/C=C/C(=O)c2sc(-c3ccccc3)nc2C)cc1 | 4.16 | > 100 µM | > 40 µM |
| CC(C)(C)c1ccc(C(=O)/C=C2\NC(=O)CS2)cc1 | 4.93 | > 100 µM | > 40 µM |
| CCOC(=O)Cn1nnc(-c2ccc(OCC(C)C)cc2)n1 | 4.78 | > 100 µM |  |
| Cc1sc2nc[nH]c(=S)c2c1-c1ccccc1 | 4.49 | > 100 µM | > 40 µM |
| COc1ccc(/C=C/c2cc(-c3ccc(C)cc3)o[n+]2C)cc1 | 5.49 | 7.34 µM | > 40 µM |
| CCc1ccc(CCC(=O)Nc2ccc(OC)cc2)o1 | 4.44 | > 100 µM |  |
| CNC(=O)c1nnsc1S(=O)(=O)c1ccc(Cl)cc1 | 4.67 | 22.2 µM | 8.55 µM |

| Structure (SMILES) | pIC50 | IC90 | CC50 |
| --- | --- | --- | --- |
| CCOC(=O)c1ccc(N/C=C/C(=O)c2ccc(OC)c(OC)c2)cc1 | 5.46 | > 100 µM |  |
| CN(C)CCCNc1cc(C(C)(C)C)nc2c(-c3ccccc3)cnn12 | 5.50 | 4.9 µM | 9.79 µM |
| O=c1[nH][nH]cc1C=Nc1ccc(Oc2ccccc2)cc1 | 4.81 | > 100 µM |  |
| N#Cc1ccc(-c2ccccc2)nc1SCC(=O)c1cc2ccccc2oc1=O | 5.78 | 2.16 µM | > 40 µM |
| Cc1ccc(-c2ccc(/C=C3\SC(N4CCOCC4)=NC3=O)o2)cc1 | 4.63 | > 100 µM | > 40 µM |
| Cc1c(Cl)c([N+](=O)[O-])nn1CCCC(=O)Nc1cc(Oc2ccccc2)cc([N+](=O)[O-])c1 | 5.16 | 10.5 µM | 28.7 µM |
| O=C(NC1CCCCC1)C(c1ccc2ncccc2c1)N(Cc1ccc2c(c1)OCO2)C(=O)c1ccc2c(c1)OCCO2 (centres undefined) | 4.90 | > 100 µM | > 40 µM |
| Cc1cc(OCc2nnc(SCC(=O)OC3CCCCC3)o2)ccc1Cl | 6.43 | 2.57 µM |  |
| CCc1ccc(-c2cc(C(F)(F)F)n3nc(C(=O)Nc4c(C)nn(Cc5ccc(F)cc5)c4C)cc3n2)s1 | 4.79 | > 100 µM | > 40 µM |
| c1ccc(-c2nc(NCCCn3ccnc3)c3ccccc3n2)cc1 | 5.23 | 8.05 µM | > 40 µM |
| Cn1nc(-c2ccc(Cl)cc2)c2cc(C(=O)N3CCN(c4ccccn4)CC3)sc21 | 5.60 | 4.36 µM | > 40 µM |
| Cc1cc(N2CCC(C)CC2)nc(-n2nc(C)cc2C)n1 | 5.50 | > 100 µM | 16.5 µM |
| OC(CNCCc1ccc(C(F)(F)F)cc1)COc1cccc2ccccc12 (centres undefined) | 5.24 | 6.42 µM | 13.7 µM |
| C=C1C(=O)[C@@]23[C@H](O)C[C@@H]4C(C)(C)CC[C@H](O)[C@@]4(C)[C@@H]2CC[C@@H]1[C@H]3O | 5.06 | 14.6 µM | 5.78 µM |
| O=C(OCC(=O)c1c[nH]c2ccccc12)c1ccc([N+](=O)[O-])s1 | 5.92 | 1.93 µM |  |
| CSc1nc(-c2ccccc2)nc(C(Cl)Cl)n1 | 5.86 | 2.04 µM | 6.42 µM |
| CCc1nc(NCc2ccc3c(c2)OCO3)c2oc3ccccc3c2n1 | 5.05 | 17 µM | > 40 µM |
| Cc1nc(Nc2ccc(Cl)c(Cl)c2)sc1C(=O)Nc1ccccc1 | 4.84 | 38 µM | 20.9 µM |
| Cc1ccc(Nc2c(-c3ccccn3)nc3ccc(C)cn23)cc1 | 5.84 | 1.63 µM | 1.54 µM |
| O=C(OCc1cccc2ccccc12)c1ccc2c(=O)[nH]c(CN3CCOCC3)nc2c1 | 6.32 | > 100 µM | > 40 µM |
| Cc1c(C(=O)Oc2cccc3cccnc23)oc2ccccc12 | 5.52 | 3.29 µM | 34.6 µM |
| O=C(C[n+]1cc(-c2ccc(F)cc2)n2c1CCC2)Nc1nc(-c2ccc(F)cc2)cs1 | 4.98 | 41.1 µM |  |
| O=C(COc1ccc(Cl)cc1)Nc1nnc(-c2ccc3c(c2)CCCC3)o1 | 4.27 | > 100 µM | > 40 µM |
| CCOC(=O)c1c(NC(=O)COc2ccccc2)sc2c1CC(C)(C)NC2(C)C | 4.70 | 26.8 µM | > 40 µM |
| COc1ccccc1/C=C/CN1CCCC(CO)(Cc2cccc(Cl)c2)C1 (centres undefined) | 4.96 | 16.4 µM | > 40 µM |
| CCCCCCCOc1ccc(OC(=O)c2cccnc2)cc1 | 5.20 | > 100 µM | 15.4 µM |

From PubChem BioAssay AID1626 (SRMLSC, 2009)
